{"source": "patent US20240197712A1", "about": "“TGF-BETA INHIBITION FOR IMMUNODEFICIENCY VIRUS REACTIVATION FROM LATENCY, ENHANCEMENT OF IMMUNODEFICIENCY VIRUS-SPECIFIC RESPONSES AND IMMUNODEFICIENCY VIRUS CURE” (Northwestern University, priority 2022, published 2024)", "key": {"HIV-Bal": {"test_system": "HIV-Bal", "assay": "In vitro HIV-1 replication in SupT1 cells and PHA-PBMC (p24 ELISA)", "type": "cell-based", "conditions": "SupT1 cells and PBMC from healthy donors, different concentrations of galunisertib", "method": "For control experiments of the impact of galunisertib on HIV infection of SupT1 cells and PBMC, SupT1 cells and PHA-activated PBMC were cultured respectively at 1 and 2 millions/ml in R10 (in presence of 20 U/ml of IL-2 for the PBMC) and infected with 50 TCID50/10^6 cells of HIV-Bal (0.01 MOI). HIV replication was monitored by p24 ELISA."}, "[1]": {"test_system": "PBMC from aviremic, ART-treated PLWH", "assay": "Modified quantitative viral outgrowth assay (qVOA) with LRA", "type": "cell-based, human", "source_text": "Considering that TGF-β is present in FBS, used to supplement PBMC and T cell cultures, and that PBMC from people living with HIV-1 release TGF-β in culture supernatants (56-58), we hypothesized that blocking TGF-β while reversing HIV-1 latency ex vivo from PBMC of ART-treated, aviremic individuals may lead to higher frequency of HIV-1 reactivation than in untreated cultures. To test this hypothesis, we used a modified version of the classical quantitative viral outgrowth assay (qVOA) (59). We used whole PBMC to assess potential latency reactivation from any HIV-1-infected circulating cell and not only from resting CD4+ T cells (FIG. 6A). PBMC from two different sets of aviremic, ART-treated donors (Table 1) were activated with PMA (at 100 ng/ml or 10 ng/ml) and with Vorinostat (SAHA, at 1 μM) in presence of T20 and galunisertib (1 μM) or mock solution. […] Infectious unit per million cells (IUPM) were calculated based on the number of infected wells as determined by p24 ELISA (FIG. 6A). […]\nPBMC were thawed and cultured in RPMI 10% FBS at 3×10^6/ml. […] 50 μl of supernatant was collected after 7, 14 and 21 days of co-culture and monitored for p24 presence by p24 ELISA (PerkinElmer). IUPM were calculated based on the number of positive wells using the IUPM calculator provided by Dr. Siliciano (76). […]"}, "[2]": {"test_system": "SIVmac239 gag, pol and env peptides", "assay": "SIV-specific responses, FluoroSpot of PBMC", "type": "in vivo, rhesus macaques", "method": "Cytokines in plasma (at 1:2 dilution) were measured using the NHP Cytokine 24-Plex kit by Meso Scale Diagnostics (MSD) according to manufacturer instructions. Frozen PBMC collected at week 6 post-infection (pre-ART), right before the first galunisertib administration (BC1), at the end of cycle 1 (AC1) and at the end of cycle 3 (AC3) were thawed in AIM V medium (ThermoFisher) with benzonase (Sigma) and plated on a FluoroSpot (CTL) plate pre-activated with 70% Ethanol and IFN-γ, TNF-α and IL-2 capture solution. Gag, pol, and env 15-mer peptides (NIH AIDS Reagents program) were prepared at two times the final concentration of 2.5 μg/ml with co-stimulatory reagents anti-CD28 10 μg/ml and anti-CD49d 10 μg/ml and added to the cells in CTL-Test™ Medium. Parallel positive […] control of PMA (20 ng/ml) and ionomycin (200 ng/mL) or mock DMSO solution was also plated with the stimulatory reagents. PBMCs were added at 300,000 cells per well. After 24 hrs, the plate was washed, and incubated with detection and tertiary solutions and shipped to CTL for scanning and QC."}, "ACH-2 cells": {"test_system": "ACH-2 cells", "assay": "PMA-induced HIV reactivation in ACH-2 cells, intracellular p24 staining", "type": "cell-based", "method": "ACH2 cells and U1 cells were obtained through the NIH HIV Reagent Program, Division of AIDS, NIAID, NIH (contributed by Dr. Thomas Folks). […] In the HIV latency reactivation conditions, PMA (Phorbol 12-myristate 13-acetate, SigmaAldrich) was added at 100 ng/ml together with galunisertib or TGF-β1. After 18 hrs, cells were stained intracellularly for p24 using the KC57 antibody (NIH HIV Reagent Program) as previously described (74)."}, "U1 cells": {"test_system": "U1 cells", "assay": "DC-driven HIV reactivation from U1 cells (moDC co-culture)", "type": "cell-based", "conditions": "moDCs treated with TGF-β1 10 ng/ml for last 2 days, with or without galunisertib; 18 hrs co-culture", "method": "CD14^+ cells were isolated from PBMC using the Miltenyi CD14^+ beads. Monocyte-derived DCs (moDCs) were obtained from CD14+ cells cultured in GM-CSF and IL-4 as previously described (55). At day 4 of moDCs differentiation, TGF-β1 (10 ng/ml R&D systems) was added to the moDCs to generate the TGF-β-DCs (or both TGF-β1 and galunisertib). At day 6, 2 days after TGF-1 addition, moDCs were phenotyped (in 3 donors; See Table 2 for antibodies list) and co-cultured with eFluor670 (eBioscience)-labelled U1 at 3:1 U1:DC ratio (5 donors). After 18 hrs of co-culture, cells were stained for p24 intracellularly as described above."}}, "data": [{"smiles": "Cc1cccc(-c2nn3c(c2-c2ccnc4ccc(C(N)=O)cc24)CCC3)n1", "note": "[galunisertib, Galunisertib]", "values": [{"measurement": "HIV-1 growth curves", "setting": "HIV-Bal", "result": "no impact"}, {"measurement": "frequency of latency reactivation events (IUPM)", "setting": "[1]; galunisertib 1 μM vs mock, PMA 100 or 10 ng/ml or Vorinostat 1 μM", "result": "significantly higher frequency"}, {"measurement": "vRNA in supernatant after PMA stimulation", "setting": "[1]; galunisertib-treated PBMC vs mock treated", "result": "higher levels of vRNA"}, {"measurement": "IL-2 release", "setting": "[2]; end of 3rd cycle", "result": "remained unchanged"}, {"measurement": "IFN-γ secretion, SIV-specific and non-specific", "setting": "[2]; end of the 3rd cycle vs BC1", "result": "significant increase"}, {"measurement": "TNF-α release", "setting": "[2]; in response to Gag and non-specifically", "result": "increased"}, {"measurement": "frequency of p24-gag+ cells in TGF-β1-treated cultures", "setting": "ACH-2 cells; ACH-2 cells, TGF-β1 + galunisertib 1 μM", "result": "restore frequency of p24-gag+ cells"}, {"measurement": "frequency of p24-gag+ cells versus PMA-stimulated cultures", "setting": "ACH-2 cells; ACH-2 cells, galunisertib in absence of exogenous TGF-β1, medium with FBS", "result": "increase it above PMA-stimulated cultures"}, {"measurement": "effect on p24+ cells in X-Vivo 15 medium without FBS", "setting": "ACH-2 cells; control experiments, U1 and ACH-2, no FBS", "result": "absent"}, {"measurement": "frequency of p24-gag+ U1 cells in cocultures with TGF-β1-treated DCs versus untreated DCs", "setting": "U1 cells", "result": "blocked"}]}]}
